Measured values as given in ChEMBL document CHEMBL3885881, “DrugMatrix”.

Species on record: Rattus norvegicus
Assay: DrugMatrix - Regimen: Daily Repeat
Type: toxicity, organism-based, Sprague-Dawley
Design: regimen Daily Repeat, gender Male, age 6-8 weeks
Conditions: in vivo, sc, 0 mg/kg, route mini-PUMP - SUBCUTANEOUS, dose level Control, vehicle 100 % SALINE; for ABSOLUTE BASOPHIL / ABSOLUTE EOSINOPHIL / ABSOLUTE LYMPHOCYTE / ABSOLUTE MONOCYTE / ABSOLUTE SEGMENTED NEUTROPHIL / BASOPHIL / EOSINOPHIL / ERYTHROCYTE COUNT / HEMATOCRIT / HEMOGLOBIN / LEUKOCYTE COUNT / LYMPHOCYTE / MEAN CORPUSCULAR HEMOGLOBIN / MEAN CORPUSCULAR HEMOGLOBIN CONCENTRATION / MEAN CORPUSCULAR VOLUME / MONOCYTE / NEUTROPHIL / NUCLEATED RED BLOOD CELLS / PLATELET COUNT: tissue Blood; for ALANINE AMINOTRANSFERASE / ALBUMIN / ALKALINE PHOSPHATASE / ASPARTATE AMINOTRANSFERASE / BLOOD UREA NITROGEN / CARBON DIOXIDE / CHLORIDE / CHOLESTEROL / CREATININE / GLUCOSE / LACTATE DEHYDROGENASE / LIPASE / PHOSPHORUS / POTASSIUM / SODIUM / TOTAL BILIRUBIN / TOTAL PROTEIN / URIC ACID: tissue Plasma

**Q.** What does the source list for `NC[C@H](O)c1ccc(O)c(O)c1` [NOREPINEPHRINE]?
**A.** ABSOLUTE BASOPHIL (72 h, time 3 day): 0 CELLS/uL; ABSOLUTE EOSINOPHIL (72 h, time 3 day): 77.17 CELLS/uL; ABSOLUTE LYMPHOCYTE (72 h, time 3 day): 14293.83 CELLS/uL; ABSOLUTE MONOCYTE (72 h, time 3 day): 354 CELLS/uL; ABSOLUTE SEGMENTED NEUTROPHIL (72 h, time 3 day): 1658.33 CELLS/uL; BASOPHIL (72 h, time 3 day): 0%; EOSINOPHIL (72 h, time 3 day): 0.5%; ERYTHROCYTE COUNT (72 h, time 3 day): 6.27 x10E6/uL; HEMATOCRIT (72 h, time 3 day): 36.95%; HEMOGLOBIN (72 h, time 3 day): 13.4 G/DL; LEUKOCYTE COUNT (72 h, time 3 day): 16.38 x10E3/uL; LYMPHOCYTE (72 h, time 3 day): 87.17%; MEAN CORPUSCULAR HEMOGLOBIN (72 h, time 3 day): 21.42 pg; MEAN CORPUSCULAR HEMOGLOBIN CONCENTRATION (72 h, time 3 day): 36.27 G/DL; MEAN CORPUSCULAR VOLUME (72 h, time 3 day): 59.03 fL; MONOCYTE (72 h, time 3 day): 2%; NEUTROPHIL (72 h, time 3 day): 10.33%; NUCLEATED RED BLOOD CELLS (72 h, time 3 day): 0 /100WBC; PLATELET COUNT (72 h, time 3 day): 904.67 x10E3/uL; ALANINE AMINOTRANSFERASE (72 h, time 3 day): 48.33 u/L; ALBUMIN (72 h, time 3 day): 3.82 G/DL; ALKALINE PHOSPHATASE (72 h, time 3 day): 282.33 u/L; ASPARTATE AMINOTRANSFERASE (72 h, time 3 day): 86.83 u/L; BLOOD UREA NITROGEN (72 h, time 3 day): 20.17 mg/dL; CARBON DIOXIDE (72 h, time 3 day): 34.67 mmol/L; CHLORIDE (72 h, time 3 day): 102 MEQ/L; CHOLESTEROL (72 h, time 3 day): 71.5 mg/dL; CREATININE (72 h, time 3 day): 0.2 mg/dL; GLUCOSE (72 h, time 3 day): 136.83 mg/dL; LACTATE DEHYDROGENASE (72 h, time 3 day): 159 u/L; LIPASE (72 h, time 3 day): 9 u/L; PHOSPHORUS (72 h, time 3 day): 10.12 mg/dL; POTASSIUM (72 h, time 3 day): 5.92 MEQ/L; SODIUM (72 h, time 3 day): 147.8 MEQ/L; TOTAL BILIRUBIN (72 h, time 3 day): 0.2 mg/dL; TOTAL PROTEIN (72 h, time 3 day): 6.05 G/DL; URIC ACID (72 h, time 3 day): 1.4 mg/dL; ABSOLUTE BASOPHIL (120 h, time 5 day): 0 CELLS/uL; ABSOLUTE EOSINOPHIL (120 h, time 5 day): 0 CELLS/uL; ABSOLUTE LYMPHOCYTE (120 h, time 5 day): 14257.33 CELLS/uL; ABSOLUTE MONOCYTE (120 h, time 5 day): 326 CELLS/uL; ABSOLUTE SEGMENTED NEUTROPHIL (120 h, time 5 day): 3216.67 CELLS/uL; BASOPHIL (120 h, time 5 day): 0%; EOSINOPHIL (120 h, time 5 day): 0%; ERYTHROCYTE COUNT (120 h, time 5 day): 6.11 x10E6/uL; HEMATOCRIT (120 h, time 5 day): 36.22%; HEMOGLOBIN (120 h, time 5 day): 13.18 G/DL; LEUKOCYTE COUNT (120 h, time 5 day): 17.8 x10E3/uL; LYMPHOCYTE (120 h, time 5 day): 80.5%; MEAN CORPUSCULAR HEMOGLOBIN (120 h, time 5 day): 21.62 pg; MEAN CORPUSCULAR HEMOGLOBIN CONCENTRATION (120 h, time 5 day): 36.42 G/DL; MEAN CORPUSCULAR VOLUME (120 h, time 5 day): 59.37 fL; MONOCYTE (120 h, time 5 day): 1.83%; NEUTROPHIL (120 h, time 5 day): 17.67%; NUCLEATED RED BLOOD CELLS (120 h, time 5 day): 0 /100WBC; PLATELET COUNT (120 h, time 5 day): 1311 x10E3/uL; ALANINE AMINOTRANSFERASE (120 h, time 5 day): 47 u/L; ALBUMIN (120 h, time 5 day): 3.83 G/DL; ALKALINE PHOSPHATASE (120 h, time 5 day): 260.33 u/L; ASPARTATE AMINOTRANSFERASE (120 h, time 5 day): 76.17 u/L; BLOOD UREA NITROGEN (120 h, time 5 day): 14.67 mg/dL; CARBON DIOXIDE (120 h, time 5 day): 31.33 mmol/L; CHLORIDE (120 h, time 5 day): 101.17 MEQ/L; CHOLESTEROL (120 h, time 5 day): 75 mg/dL; CREATININE (120 h, time 5 day): 0.16 mg/dL; GLUCOSE (120 h, time 5 day): 152.67 mg/dL; LACTATE DEHYDROGENASE (120 h, time 5 day): 147.33 u/L; LIPASE (120 h, time 5 day): 9.33 u/L; PHOSPHORUS (120 h, time 5 day): 10.97 mg/dL; POTASSIUM (120 h, time 5 day): 6 MEQ/L; SODIUM (120 h, time 5 day): 145.52 MEQ/L; TOTAL BILIRUBIN (120 h, time 5 day): 0.17 mg/dL; TOTAL PROTEIN (120 h, time 5 day): 5.83 G/DL; URIC ACID (120 h, time 5 day): 1.27 mg/dL; ABSOLUTE BASOPHIL ([…], time 14 day): 0 CELLS/uL; ABSOLUTE EOSINOPHIL ([…], time 14 day): 64.5 CELLS/uL; ABSOLUTE LYMPHOCYTE ([…], time 14 day): 12507.83 CELLS/uL; ABSOLUTE MONOCYTE ([…], time 14 day): 380.33 CELLS/uL; ABSOLUTE SEGMENTED NEUTROPHIL ([…], time 14 day): 2414 CELLS/uL; BASOPHIL ([…], time 14 day): 0%; EOSINOPHIL ([…], time 14 day): 0.5%; ERYTHROCYTE COUNT ([…], time 14 day): 6.1 x10E6/uL; HEMATOCRIT ([…], time 14 day): 35.4%; HEMOGLOBIN ([…], time 14 day): 12.88 G/DL; LEUKOCYTE COUNT ([…], time 14 day): 15.37 x10E3/uL; LYMPHOCYTE ([…], time 14 day): 80.83%; MEAN CORPUSCULAR HEMOGLOBIN ([…], time 14 day): 21.18 pg; MEAN CORPUSCULAR HEMOGLOBIN CONCENTRATION ([…], time 14 day): 36.43 G/DL; MEAN CORPUSCULAR VOLUME ([…], time 14 day): 58.17 fL; MONOCYTE ([…], time 14 day): 2.17%; NEUTROPHIL ([…], time 14 day): 16.5%; NUCLEATED RED BLOOD CELLS ([…], time 14 day): 0.17 /100WBC; PLATELET COUNT ([…], time 14 day): 1016 x10E3/uL; ALANINE AMINOTRANSFERASE ([…], time 14 day): 53.33 u/L; ALBUMIN ([…], time 14 day): 3.93 G/DL; ALKALINE PHOSPHATASE ([…], time 14 day): 319.83 u/L; ASPARTATE AMINOTRANSFERASE ([…], time 14 day): 84 u/L; BLOOD UREA NITROGEN ([…], time 14 day): 15.5 mg/dL; CARBON DIOXIDE ([…], time 14 day): 34 mmol/L; CHLORIDE ([…], time 14 day): 101.83 MEQ/L; CHOLESTEROL ([…], time 14 day): 57 mg/dL; CREATININE ([…], time 14 day): 0.21 mg/dL; GLUCOSE ([…], time 14 day): 182.33 mg/dL; LACTATE DEHYDROGENASE ([…], time 14 day): 104.67 u/L; LIPASE ([…], time 14 day): 9.17 u/L; PHOSPHORUS ([…], time 14 day): 11.12 mg/dL; POTASSIUM ([…], time 14 day): 5.81 MEQ/L; SODIUM ([…], time 14 day): 144.85 MEQ/L; TOTAL BILIRUBIN ([…], time 14 day): 0.18 mg/dL; TOTAL PROTEIN ([…], time 14 day): 5.92 G/DL; URIC ACID ([…], time 14 day): 1.38 mg/dL
